Reference: PMC12386606, “Evaluation of the In Vitro Blood–Brain Barrier Transport of Ferula persica L. Bioactive Compounds” (International Journal of Molecular Sciences, 2025)
Where “and” joins values, the source holds several entries; their conditions need not be identical. Equal entries are not always repeated. Structures can show the parent of a compound that is named as a salt.

What was measured:
[1] = oil/water partition coefficient; Table 1; ref PubChem; cited from earlier work
[2] = Parallel artificial membrane permeability assay for the blood–brain barrier (PAMPA-BBB); details: for AerExt log Pe: compound within AerExt donor solution; for AerExt log Pe / RootExt log Pe: 37 °C, 4 h, PBS pH 7.4, n.q. = not quantified in the acceptor plate; for RootExt log Pe: compound within RootExt donor solution; for RootExt Cross BBB Potential: compound within RootExt; for RootExt Cross BBB Potential / AerExt Cross BBB Potential: PAMPA-BBB; for Papp at 4 h: PAMPA, pH 7.4; for AerExt Cross BBB Potential: compound within AerExt
Description: The permeability of bioactive compounds from AerExt and RootExt across the BBB was assessed using the PAMPA-BBB assay, following the methodology described by [11]. Firstly, the BBB solution was prepared by dissolving 8 mg of PBL and 4 mg of cholesterol in 600 μL of n-dodecane. The initial donor solution was prepared by mixing 1 mL of AerExt or RootExt (at 10 mg mL^−1 in EtOH) with 1 mL of buffer (PBS, pH = 7.4, 10 mM). The filter membrane of the donor plate was coated with 5 μL of BBB solution. The acceptor plate was filled with 350 μL of buffer, and the donor plate was carefully placed on top of the acceptor plate to form a “sandwich-like” assembly. Subsequently, 350 μL of the donor solution was added to the donor plate, which was then covered and incubated at 37 °C for 4 h in the dark. After the incubation time, 300 μL of the solution was collected from each plate, transferred into separate vials, and evaporated using a SpeedVac system at 40 °C under 13 mbar pressure. The dried acceptor and donor solutions were dissolved in 50 μL of pure EtOH before being subjected to HPLC-Q-TOF-MS/MS and GC-Q-TOF-MS analysis. Permeability (Pe) across the PAMPA-BBB of the bioactive compound was calculated according to Equation (1) [54], with modifications in concentration rates.Pe = −ln[1 − CA(t)/Cequilibrium]/(A × (1/VD + 1/VA) × t)(1)
Cequilibrium was calculated according to Equation (2):Cequilibrium = [CD(t) × VD + CA(t) × VA]/(VD + VA)(2)
The HPLC-MS and GC-MS chromatograms were processed using the Agilent Mass Hunter Qualitative software (version B.10.0) to verify the retention time and exact mass of the compounds previously reported by us [25] and to extract their peak area to calculate the BBB permeability.

HBMEC cells = experiment: Blood–brain barrier transport study in HBMEC Transwell monolayer; details: for AerExt Te (%) ± SD 2 h / AerExt Te (%) ± SD 4 h / AerExt Te (%) ± SD 24 h: AerExt 40 µg mL^−1 apical; for AerExt Te (%) ± SD 2 h / AerExt Te (%) ± SD 4 h / AerExt Te (%) ± SD 24 h / RootExt Te (%) ± SD 2 h / RootExt Te (%) ± SD 4 h / RootExt Te (%) ± SD 24 h: n.q. = not quantified in the basolateral compartment; for RootExt Te (%) ± SD 2 h / RootExt Te (%) ± SD 4 h / RootExt Te (%) ± SD 24 h: RootExt 20 µg mL^−1 apical; for crossing of the HBMEC-BBB: AerExt 40 µg mL^−1 / RootExt 20 µg mL^−1, 2, 4, 24 h; for abundance in the apical compartment relative to the basolateral compartment (times higher) / Te of newly formed sulfated metabolites: after AerExt 40 µg mL^−1 treatment of HBMEC; for Te of newly formed sulfated metabolites: tentatively identified metabolites; for AerExt Te (%) ± SD 24 h / RootExt Te (%) ± SD 24 h / Te of newly formed sulfated metabolites: 24 h
Description: After the toxicity evaluation, the HBMEC cell line was also used as a simplified in vitro model of the BBB endothelium. Cells were seeded at a density of 1.6 × 10^5 cells/cm^2 in 12-well Transwell® plates (Corning Costar Corp., Corning, USA) with a pore diameter of 0.4 μm, pre-coated with type I rat tail collagen (100 μg mL^−1) [55]. The culture medium was renewed every 2 days until a monolayer cell structure was formed (see Supplementary Figure S2), and transport experiments were initiated after 10 days. In transport experiments, the medium in the apical (upper) compartment of the Transwell system was removed, and 0.5 mL of AerExt or RootExt at a concentration of 40 μg mL^−1 and 20 μg mL^−1, respectively, was added to these compartments (applied in duplicate). Also, a medium containing 0.4% (v/v) ethanol was used as control group. The basolateral (lower) compartments were filled with 1.5 mL of fresh culture medium. The cells were incubated under these conditions for 2, 4, and 24 h.
At the end of the incubation periods, media samples were collected from both chambers and lyophilized using a freeze-drying system from Martin Christ (Osterode am Harz, Germany). The samples were stored at −80 °C until analysis. The collected samples were subjected to chemical analyses to evaluate the ability of bioactive compounds contained in the extracts to pass through the cell monolayer.
The transport efficiency (Te) of bioactive substances was calculated based on Equation (3), described by [56]:Te (%) = CLower/CUpper × 100(3)
This calculation was performed to understand whether the compound crosses the cell layer and how efficiently it is transported.
For this purpose, 0.2 mL of cold water (H2O) was added to the samples, and the samples were vortexed for 10 s. Then, 0.8 mL of cold methanol was added and vortexed again for 10 s. Then, the mixture was centrifuged at 14,000 rpm for 5 min, and the supernatant was carefully transferred to a 1.5 mL Eppendorf tube and dried in a SpeedVac device at 40 °C and 13 bar pressure. Finally, the dried samples were resuspended in 25 μL of pure ethanol for their subsequent analysis.
For HPLC-Q-TOF MS/MS analysis, aliquots of 2 μL were injected into an HPLC model 1290 coupled to a Q-TOF series 6540 (Agilent Technologies, Waldbronn, Germany). For GC-Q-TOF MS analysis, aliquots of 1 μL were injected with a split ratio of 1:10 into a GC model 7890B coupled to a Q-TOF series 7200 (Agilent Technologies, Waldbronn, Germany). The HPLC-MS and GC-MS chromatograms were processed using the Agilent Mass Hunter Qualitative software (version B.10.0) to verify the retention time and exact mass of the compounds previously reported by us [25] and to extract their peak area to calculate the BBB permeability.

Compound	log p [1]	AerExt log Pe [2]	RootExt log Pe [2]	AerExt Te (%) ± SD 2 h (HBMEC cells)	AerExt Te (%) ± SD 4 h (HBMEC cells)	AerExt Te (%) ± SD 24 h (HBMEC cells)	also measured
C/C1=C\CC/C(C)=C/CC(C)(C)/C=C/C1 [α-humulene]	4.5	n.q.	n.q.	–	–	–	–
COc1cc([C@H]2OC[C@H]3[C@@H]2CO[C@@H]3c2cc(OC)c(O[C@@H]3O[C@H](CO)[C@@H](O)[C@H](O)[C@H]3O)c(OC)c2)cc(OC)c1O [Syringaresinol glucoside]	−1.4	n.q.	n.q.	–	–	–	–
C[C@@H]1CCC=C2CC[C@@H](C(C)(C)O)C[C@]21C [Valerianol]	3.5	−5.35	−5.59	–	–	–	RootExt Cross BBB Potential [2]: + (log Pe < −6.5)
C=C1CC[C@H]2O[C@]2(C)CC[C@@H]2[C@@H]1CC2(C)C [(–)-caryophyllene oxide]	3.6	–	–	4.3 ± 0.1%	8.6 ± 0.6%	8.8 ± 0.7%	RootExt Te (%) ± SD 2 h (HBMEC cells): n.q.; RootExt Te (%) ± SD 4 h (HBMEC cells): n.q.; RootExt Te (%) ± SD 24 h (HBMEC cells): n.q.
COc1cc(/C=C/C(=O)O)ccc1O [Ferulic acid]	–	–	n.q.	1.9 ± 0.2%	1.9 ± 0.2%	19.8 ± 10.3%	AerExt Te (%) ± SD 2 h (HBMEC cells; listed as ferulic acid): 2%; AerExt Te (%) ± SD 24 h (HBMEC cells; listed as ferulic acid): 20%; RootExt Te (%) ± SD 2 h (HBMEC cells): n.q.; RootExt Te (%) ± SD 4 h (HBMEC cells): n.q.; RootExt Te (%) ± SD 24 h (HBMEC cells): n.q.
COc1cc2ccc(=O)oc2c(O)c1OC [Fraxidin]	1.5	−4.82	−4.81	–	–	–	–
O=c1cc(-c2ccc(O)c(O)c2)oc2cc(O)cc(O)c12 [Luteolin]	–	–	–	–	–	–	crossing of the HBMEC-BBB (HBMEC cells): could not cross the HBMEC-BBB; Papp at 4 h [2]: 26.3 ×10⁻⁶ cm/s
CC(=O)c1ccc(O)c(O)c1 [3,4-dihydroxyacetophenone]	1.5	–	–	–	–	–	Papp at 4 h [2]: 17.4 ×10⁻⁶ cm/s
CC(=O)OC(C)(C)[C@@H]1CC[C@H](C)C2=C(C1)[C@@H](C)CC2 [Guaiol acetate]	3.6	n.q.	−5.05	–	–	–	–
CC1=C2C[C@H](C(C)(C)O)CC[C@]2(C)CCC1 [epi-γ-eudesmol]	2.9	–	–	–	–	–	AerExt Cross BBB Potential [2]: + (log Pe < −6.5); RootExt Cross BBB Potential [2]: + (log Pe < −6.5)
COc1cc(-c2cc(=O)c3c(O)cc(O)cc3o2)ccc1O [Chrysoeriol]	1.7	n.q.	–	–	–	–	–
C=C(C)C(O)CCC(C)C1CCC2(C)C3CCC4C(C)(C)C(O)CCC45CC35CCC12C (stereo not shown) [9,19-cyclolanost-25-ene-3,24-diol]	8.6	−5.60	−5.79	–	–	–	AerExt Cross BBB Potential [2]: + (log Pe < −6.5); RootExt Cross BBB Potential [2]: + (log Pe < −6.5)
C=CCc1cc(OC)c2c(c1)OCO2 [Myristicin]	2.9	–	n.q.	–	–	–	–
CC12CCC3C(CC3(C)C)C(C)(CCC1=O)O2 (stereo not shown) [3,7-epoxycaryophyllan-6-One]	2.8	–	–	–	–	–	–
CC(=O)O[C@@H]1[C@@H](OC(C)=O)[C@@H](O)[C@H](Oc2c(-c3ccc(O)cc3)oc3cc(O)cc(O)c3c2=O)O[C@H]1C [Kaempferol 3-O-(3″,4″-di-O-acetyl-a-L-rhamnopyranoside)]	−0.9	n.q.	–	–	–	–	–
CC1=C2CCC(C)C2CC(C(C)(C)O)CC1 (stereo not shown) [Bulnesol]	3.8	n.q.	n.q.	–	–	–	–
C=CC1(C)CCC(=C(C)C)CC1C(=C)C (stereo not shown) [γ-elemene]	5.4	n.q.	n.q.	–	–	–	–

Compound	log p [1]	AerExt log Pe [2]	RootExt log Pe [2]	AerExt Te (%) ± SD 2 h (HBMEC cells)	AerExt Te (%) ± SD 4 h (HBMEC cells)	AerExt Te (%) ± SD 24 h (HBMEC cells)	also measured
C[C@@H]1CCCC2=CC[C@@H]3[C@@H](C3(C)C)[C@]21C [(–)-aristolene]	4.7	n.q.	n.q.	–	–	–	–
α-epi-7-epi-5-eudesmol	3.4	n.q.	n.q.	–	–	–	–
c1ccc2c(c1)[nH]c1cnccc12 [Norharman]	3.2	–	–	2.3 ± 0.1%	5.3 ± 1.4%	4.1 ± 0.2%	–
CC1(C)C[C@H](O)C[C@@]2(C)OC(=O)C=C12 [Loliolide]	1.0	–	–	6.2 ± 0.7%	12.1 ± 0.8%	12.4 ± 0.8%	–
COc1cc2ccc(=O)oc2c(OC)c1O [Isofraxidin]	1.5	–	–	n.q.	n.q.	n.q.	RootExt Te (%) ± SD 2 h (HBMEC cells): n.q.; RootExt Te (%) ± SD 4 h (HBMEC cells): n.q.; RootExt Te (%) ± SD 24 h (HBMEC cells): 30.5 ± 6.6%
apigenin sulfate	–	–	–	–	–	–	abundance in the apical compartment relative to the basolateral compartment (times higher) (HBMEC cells): ~40 times; Te of newly formed sulfated metabolites (HBMEC cells): 2.7%
COc1ccc(O)c(C=O)c1 [2-hydroxy-5-methoxybenzaldehyde]	1.8	–	–	18.8 ± 2.3%	9.1 ± 1.2%	11.0 ± 1.3%	RootExt Te (%) ± SD 2 h (HBMEC cells): 31.8 ± 8.0%; RootExt Te (%) ± SD 4 h (HBMEC cells): 36.3 ± 10.9%; RootExt Te (%) ± SD 24 h (HBMEC cells): 164.8 ± 21.0%
O=Cc1ccc(O)cc1 [4-hydroxybenzaldehyde]	–	–	–	23.3 ± 3.1%	18.5 ± 0.3%	49.4 ± 5.9%	RootExt Te (%) ± SD 2 h (HBMEC cells): 62.1 ± 21.9%; RootExt Te (%) ± SD 4 h (HBMEC cells): 57.5 ± 1.7%; RootExt Te (%) ± SD 24 h (HBMEC cells): 184.6 ± 23.0%
C=CCc1cc(OC)c(OC)c(OC)c1 [Elemicin]	2.5	–	–	–	–	–	–
C[C@@H]1CC[C@H]2C(C(=O)O)=C[C@@H]3[C@@H](O)C(C)(C)C[C@@]132 [Pentalenic acid]	2.7	–	–	–	–	–	–
COc1cc2ccc(=O)oc2cc1O [7-hydroxy-6-methoxycoumarin]	1.5	–	–	0.6 ± 0.2%	1.9 ± 0.1%	6.1 ± 1.5%	RootExt Te (%) ± SD 2 h (HBMEC cells): n.q.; RootExt Te (%) ± SD 4 h (HBMEC cells): n.q.; RootExt Te (%) ± SD 24 h (HBMEC cells): n.q.
C=C(C)[C@@H]1CC[C@@]2(C)CCC(=O)C(C)=C2C1 [α-cyperone]	3.8	–	–	12.2 ± 0.1%	25.1 ± 1.4%	56.5 ± 6.5%	RootExt Te (%) ± SD 2 h (HBMEC cells): 15.4 ± 2.6%; RootExt Te (%) ± SD 4 h (HBMEC cells): 20.1 ± 12.0%; RootExt Te (%) ± SD 24 h (HBMEC cells): 187% and 187.3 ± 12.5%
COc1cc(/C=C/C(=O)O)ccc1OS(=O)(=O)O [ferulic acid sulfate]	–	–	–	–	–	–	abundance in the apical compartment relative to the basolateral compartment (times higher) (HBMEC cells): ~40 times; Te of newly formed sulfated metabolites (HBMEC cells): 2.3%
O=Cc1ccc(O)c(O)c1 [Protocatechuic aldehyde]	1.3	–	–	n.q.	n.q.	n.q.	crossing of the HBMEC-BBB (HBMEC cells): could not cross the HBMEC-BBB; RootExt Te (%) ± SD 2 h (HBMEC cells): n.q.; RootExt Te (%) ± SD 4 h (HBMEC cells): n.q.
CCOC(=O)/C=C/c1ccc(O)c(O)c1 [Ethyl caffeate]	2.6	–	–	–	–	–	–
Cc1ncsc1CCO [4-methyl-5-thiazoleethanol]	0.8	–	–	–	–	–	–
CC1=C[C@H]2[C@@H](CC1=O)[C@H](C)C[C@H](O)[C@H]2C(C)C [8-hydroxyageraphorone]	2.9	–	–	n.q.	n.q.	n.q.	RootExt Te (%) ± SD 2 h (HBMEC cells): n.q.; RootExt Te (%) ± SD 4 h (HBMEC cells): n.q.; RootExt Te (%) ± SD 24 h (HBMEC cells): 124.7 ± 16.9%
